In US12357596B2, “Compounds for prevention and treatment of obesity and related disorders” (ABREXA PHARMACEUTICALS, INC., priority 2019, dated 2025):

Test: 28-day once-daily oral gavage toxicity study with 14-day recovery (body weight, food consumption, clinical and anatomic pathology)
Format: in vivo
Conditions: for Decrease of group mean food consumption compared to Group 1 controls: Days 21 to 28
Experimental: J147 or vehicle was administered once daily to Sprague-Dawley rats via oral gavage for 28 consecutive days at a daily dose of 0, 30, 100 or 300 mg/kg. J174 was prepared in a vehicle formulation comprising 5% ethanol, 5% DMSO and 90% corn oil (v/v/v). Certified rodent diet and water was available ad libitum. Groups 1-4 contained 10 animals/sex/group. Groups 1 (control) and 4 (high dose) also included an additional 5 animals/sex/group for use as recovery animals. The recovery animals were maintained on study for a 14-day postdosing recovery period. Animals in Groups 1-4 were monitored for morbidity and mortality, clinical signs, detailed clinical observations, body weight, food consumption, ophthalmologic parameters, neurobehavioral assessment consisting of a Functional Observational Battery (FOB) and a motor activity test, hematology, coagulation, serum chemistry, and urinalysis parameters. Postmortem assessment included necropsy, measurement of selected organ weights, and microscopic evaluation of a standard set of tissues. Plasma samples for bioanalysis were collected on Days 1 and 28 from satellite toxicokinetic animals in Groups 5 through 8. Animals in these groups were euthanized following the last blood sampling and carcasses were discarded without examination. The study protocol is shown below in Table 1.

[1] = Group 2F: female rats, 30 mg/kg/day
[2] = Group 2M: male rats, 30 mg/kg/day
[3] = Group 3F: female rats, 100 mg/kg/day
[4] = Group 3M: male rats, 100 mg/kg/day
[5] = Group 4F: female rats, 300 mg/kg/day
[6] = Group 4M: male rats, 300 mg/kg/day
[7] = female rats, 30 mg/kg/day, Day 7 → 14
[8] = female rats, 30 mg/kg/day, Day 14 → 21
[9] = female rats, 30 mg/kg/day, Day 21 → 28
[10] = female rats, 30 mg/kg/day, Day −1 → 7
[11] = female rats, 100 mg/kg/day, Day 7 → 14
[12] = female rats, 100 mg/kg/day, Day 14 → 21
[13] = female rats, 100 mg/kg/day, Day 21 → 28
[14] = female rats, 100 mg/kg/day, Day 28
[15] = female rats, 100 mg/kg/day, Day −1 → 7
[16] = female rats, 300 mg/kg/day, Day 7 → 14
[17] = female rats, 300 mg/kg/day, Day 14 → 21
[18] = female rats, 300 mg/kg/day, Day 21 → 28
[19] = female rats, 300 mg/kg/day, Day 28
[20] = female rats, 300 mg/kg/day, Day −1 → 7
[21] = male rats, 30 mg/kg/day, Day 7 → 14

## COc1cccc(/C=N/N(C(=O)C(F)(F)F)c2ccc(C)cc2C)c1 [J147]
[1]
  Terminal Body Weight % Diff from Control: −2.4%
  Terminal Body Weight (mean): 238.10 g
[2]
  Terminal Body Weight % Diff from Control: +1.4%
  Terminal Body Weight (mean): 443.50 g
[3]
  Terminal Body Weight % Diff from Control: −7.6%
  Terminal Body Weight (mean): 225.43 g
[4]
  Terminal Body Weight % Diff from Control: −5.69%
  Terminal Body Weight (mean): 412.50 g
[5]
  Terminal Body Weight % Diff from Control: −14.23%
  Terminal Body Weight (mean): 209.24 g
[6]
  Terminal Body Weight % Diff from Control: −17.91%
  Terminal Body Weight (mean): 359.05 g
Both sexes, Sprague-Dawley, rat, in vivo, po
  NOAEL at 28 days: 30 mg/kg/day
Female rats, 30 mg/kg/day
  Increase in platelet counts: 3.8%
Female rats, 30 mg/kg/day, Day 7
  Mean Bodyweight: 220.64 g
[7]
  Food Mean Consumption: 14.89 g/animal/day
  Mean Bodyweight Gain: 13.06 g
Female rats, 30 mg/kg/day, Day 14
  Mean Bodyweight: 233.70 g
[8]
  Food Mean Consumption: 15.47 g/animal/day
  Mean Bodyweight Gain: 9.45 g
Female rats, 30 mg/kg/day, Day 21
  Mean Bodyweight: 243.15 g
[9]
  Food Mean Consumption: 15.12 g/animal/day
  Mean Bodyweight Gain: 5.08 g
Female rats, 30 mg/kg/day, Day 28
  Mean Bodyweight: 248.23 g
Female rats, 30 mg/kg/day, Day −1 (pre-dose)
  Mean Bodyweight: 203.02 g
[10]
  Food Mean Consumption: 15.49 g/animal/day
  Mean Bodyweight Gain: 17.62 g
Female rats, 30 mg/kg/day, Day −1 → 28
  Mean Bodyweight Gain: 45.21 g
Female rats, 30 mg/kg/day, Day −3 (pre-dose)
  Mean Bodyweight: 200.70 g
Female rats, 100 mg/kg/day, Day 7
  Mean Bodyweight: 215.78 g
[11]
  Food Mean Consumption: 13.85 d^4 g/animal/day
  Mean Bodyweight Gain: 9.99 d^3 g
Female rats, 100 mg/kg/day, Day 14
  Mean Bodyweight: 225.77 d^2 g
[12]
  Food Mean Consumption: 14.70 g/animal/day
  Mean Bodyweight Gain: 7.02 g
Female rats, 100 mg/kg/day, Day 21
  Mean Bodyweight: 232.79 d^2 g
[13]
  Food Mean Consumption: 13.98 g/animal/day
  Mean Bodyweight Gain: 1.60 g
[14]
  Decrease of group mean body weight compared to Group 1 controls: 6.9%
  Mean Bodyweight: 234.39 g
Female rats, 100 mg/kg/day, Day −1 (pre-dose)
  Mean Bodyweight: 206.05 g
[15]
  Food Mean Consumption: 14.33 dd^3 g/animal/day
  Mean Bodyweight Gain: 9.73 d^3 g
Female rats, 100 mg/kg/day, Day −1 → 28
  Mean Bodyweight Gain: 28.34 dd^4 g
Female rats, 100 mg/kg/day, Day −3 (pre-dose)
  Mean Bodyweight: 201.20 g
Female rats, 100 mg/kg/day
  Decrease of group mean food consumption compared to Group 1 controls: 8.6%
Female rats, 300 mg/kg/day for 28 days, Day 28 → 35 (recovery)
  Food Mean Consumption: 22.30 d^4 g/animal/day
Female rats, 300 mg/kg/day for 28 days, Day 28 → 42 (recovery)
  Mean Bodyweight Gain: 32.82 g
Female rats, 300 mg/kg/day for 28 days, Day 35 (recovery)
  Mean Bodyweight: 249.62 g
Female rats, 300 mg/kg/day for 28 days, Day 35 → 42 (recovery)
  Food Mean Consumption: 20.22 g/animal/day
Female rats, 300 mg/kg/day for 28 days, Day 42 (recovery)
  Mean Bodyweight: 258.24 g
Female rats, 300 mg/kg/day, Day 7
  Mean Bodyweight: 214.74 g
[16]
  Food Mean Consumption: 13.81 dd^3 g/animal/day
  Mean Bodyweight Gain: 8.25 dd^4 g
Female rats, 300 mg/kg/day, Day 14
  Mean Bodyweight: 222.99 dd^3 g
[17]
  Food Mean Consumption: 14.73 g/animal/day
  Mean Bodyweight Gain: 5.03 dd^4 g
Female rats, 300 mg/kg/day, Day 21
  Mean Bodyweight: 228.03 dd^3 g
[18]
  Food Mean Consumption: 12.91 d^4 g/animal/day
  Mean Bodyweight Gain: −7.49 d^3 g
[19]
  Decrease of group mean body weight compared to Group 1 controls: 12.4%
  Mean Bodyweight: 220.53 dd^3 g
Female rats, 300 mg/kg/day, Day −1 (pre-dose)
  Mean Bodyweight: 207.85 g
[20]
  Food Mean Consumption: 13.75 dd^3 g/animal/day
  Mean Bodyweight Gain: 6.89 dd^4 g
Female rats, 300 mg/kg/day, Day −1 → 28
  Mean Bodyweight Gain: 12.68 dd^4 g
Female rats, 300 mg/kg/day, Day −3 (pre-dose)
  Mean Bodyweight: 200.70 g
Female rats, 300 mg/kg/day
  Decrease of group mean food consumption compared to Group 1 controls: 15.6%
Female rats, Group 2 (30 mg/kg/day)
  Group mean weight gain from Day −1 to 28: 45 grams
Female rats, Group 3 (100 mg/kg/day)
  Group mean weight gain from Day −1 to 28: 28 grams
Female rats, Group 4 (300 mg/kg/day)
  Group mean weight gain from Day −1 to 28: 13 grams
Male rats, 30 mg/kg/day, Day 7
  Mean Bodyweight: 338.91 g
[21]
  Mean Bodyweight Gain: 52.38 g
  Mean Food Consumption: 24.85
Male rats, 30 mg/kg/day, Day 14
  Mean Bodyweight: 391.29 g
